Where “and” joins values, the source holds several entries; their conditions need not be identical. Equal values may be shown once.
What was measured:
Format in all cases: in vivo
[1] = tested on: Digitaria sanguinalis; assay: Herbicidal action pre-emergence, greenhouse pot test; conditions: application rate 80 g/ha
Source text: Seeds of mono- and dicotyledonous weeds and crop plants were laid out in plastic or organic plant pots and covered with soil. The compounds of the invention formulated in the form of wettable powders (WP) or as emulsion concentrates (EC) were then applied to the surface of the covering soil as an aqueous suspension or emulsion with addition of 0.5% additive at a water application rate equivalent to 600 L/ha. After the treatment, the pots were placed in a greenhouse and kept under good growth conditions for the test plants. After about 3 weeks, the efficacy of the preparations was scored visually as a percentage by comparison with untreated controls. For example, 100% efficacy=plants have died. 0% efficacy=like control plants.

[2] = tested on: Digitaria sanguinalis; assay: Herbicidal action post-emergence, greenhouse pot test; conditions: application rate 20 g/ha
[3] = tested on: Polygonum convolvulus; assay: Herbicidal action pre-emergence, greenhouse pot test
Procedure, shortened: (§1)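 Efficacy (%) was estimated visually after about 3 weeks in the greenhouse by comparison with untreated pots. Before that, seeded pots received a surface spray of formulated compound at 320 g/ha or less.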

[4] = tested on: Pharbitis purpurea; assay: as above
Procedure, shortened: as §1

[5] = tested on: Amaranthus retroflexus; assay: as above; conditions: application rate 80 g/ha
Procedure, shortened: as §1

[6] = tested on: Echinochloa crus-galli; assay: as above
Procedure, shortened: as §1

[7] = tested on: Stellaria media; assay: as above
Procedure, shortened: as §1

[8] = tested on: Setaria viridis; assay: as above
Procedure, shortened: as §1

[9] = tested on: Viola tricolor; assay: as above
Procedure, shortened: as §1

[10] = tested on: Abutilon theophrasti; assay: as above
Procedure, shortened: as §1

[11] = tested on: Veronica persica; assay: as above
Procedure, shortened: as §1

[12] = tested on: Triticum aestivum; assay: Crop compatibility post-emergence, greenhouse pot test; conditions: application rate 20 g/ha
Procedure, shortened: (§2)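 Sandy loam pots, greenhouse; one-leaf stage, 2–3 wk post-sowing; WP or EC, aq. spray on green parts, 0.5% additive, 600 L/ha; ~3 wk; visual score % vs untreated (0 = control-like, 100 = dead).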

[13] = tested on: Polygonum convolvulus; assay: Herbicidal action post-emergence, greenhouse pot test
Procedure, shortened: (§3)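 Plants grown from seed in sandy loam are treated at the one-leaf stage with aqueous suspensions or emulsions, 600 L/ha water rate, 0.5% additive, at 80 g/ha or lower. They then stand about 3 weeks in the greenhouse before visual scoring against untreated controls.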

[14] = tested on: Pharbitis purpurea; assay: as above
Procedure, shortened: as §3

[15] = tested on: Amaranthus retroflexus; assay: as above
Procedure, shortened: as §3

[16] = tested on: Echinochloa crus-galli; assay: as above
Procedure, shortened: as §3

[17] = tested on: Stellaria media; assay: as above
Procedure, shortened: as §3

[18] = tested on: Alopecurus myosuroides; assay: as above; conditions: scored visually after about 3 weeks vs untreated controls
Procedure, shortened: as §3

[19] = tested on: Setaria viridis; assay: as above
Procedure, shortened: as §3

[20] = tested on: Viola tricolor; assay: as above
Procedure, shortened: as §3

[21] = tested on: Matricaria inodora; assay: as above
Procedure, shortened: as §3

[22] = tested on: Abutilon theophrasti; assay: as above
Procedure, shortened: as §3

[23] = tested on: Veronica persica; assay: as above
Procedure, shortened: as §3

[24] = tested on: Matricaria inodora; assay: Herbicidal action pre-emergence, greenhouse pot test
[25] = tested on: Hordeum murinum; assay: as above; conditions: application rate 320 g/ha
Procedure, shortened: as §1

[26] = tested on: Lolium rigidum; assay: as above; conditions: application rate 320 g/ha
Procedure, shortened: as §1

[27] = tested on: Alopecurus myosuroides; assay: as above; conditions: application rate 320 g/ha
Procedure, shortened: as §1

[28] = tested on: Avena fatua; assay: as above; conditions: application rate 320 g/ha
Procedure, shortened: as §1

[29] = tested on: Cyperus esculentus; assay: as above; conditions: application rate 320 g/ha
Procedure, shortened: as §1

[30] = tested on: Glycine max; assay: Crop compatibility post-emergence, greenhouse pot test; conditions: application rate 20 g/ha
Procedure, shortened: as §2

[31] = tested on: Zea mays; assay: as above; conditions: application rate 80 g/ha
Procedure, shortened: as §2

[32] = tested on: Oryza sativa; assay: as above; conditions: application rate 80 g/ha
Procedure, shortened: as §2

[33] = tested on: Hordeum murinum; assay: Herbicidal action post-emergence, greenhouse pot test; conditions: application rate 80 g/ha
Procedure, shortened: as §3

[34] = tested on: Avena fatua; assay: as above; conditions: application rate 80 g/ha
Procedure, shortened: as §3

[35] = tested on: Lolium rigidum; assay: as above; conditions: application rate 80 g/ha
Procedure, shortened: as §3

CC(Sc1cc(-n2c(=O)cc(C(F)(F)F)n(C)c2=O)c(F)cc1Cl)C(=O)OC1C(=O)OCC1(C)C (centres unmarked) [I.1-142]
80%: Alopecurus myosuroides (Efficacy in %) ([18]; application rate 20 g/ha)
90%: Pharbitis purpurea (Efficacy in %) ([4]; application rate 80 g/ha) | Echinochloa crus-galli (Efficacy in %) ([6]; application rate 80 g/ha)
20%: Triticum aestivum (Efficacy in %) [12]
100%: Digitaria sanguinalis (Efficacy in %) [1] | Digitaria sanguinalis (Efficacy in %) [2] | Polygonum convolvulus (Efficacy in %) ([3]; application rate 80 g/ha) | Amaranthus retroflexus (Efficacy in %) [5] | Stellaria media (Efficacy in %) ([7]; application rate 80 g/ha) | Setaria viridis (Efficacy in %) ([8]; application rate 80 g/ha) | Viola tricolor (Efficacy in %) ([9]; application rate 80 g/ha) | Abutilon theophrasti (Efficacy in %) ([10]; application rate 80 g/ha) | Veronica persica (Efficacy in %) ([11]; application rate 80 g/ha) | Polygonum convolvulus (Efficacy in %) ([13]; application rate 20 g/ha) | Pharbitis purpurea (Efficacy in %) ([14]; application rate 20 g/ha) | Amaranthus retroflexus (Efficacy in %) ([15]; application rate 20 g/ha) | Echinochloa crus-galli (Efficacy in %) ([16]; application rate 20 g/ha) | Stellaria media (Efficacy in %) ([17]; application rate 20 g/ha) | Setaria viridis (Efficacy in %) ([19]; application rate 20 g/ha) | Viola tricolor (Efficacy in %) ([20]; application rate 20 g/ha) | Matricaria inodora (Efficacy in %) ([21]; application rate 20 g/ha) | Abutilon theophrasti (Efficacy in %) ([22]; application rate 20 g/ha) | Veronica persica (Efficacy in %) ([23]; application rate 20 g/ha) | Matricaria inodora (Efficacy in %) ([24]; application rate 80 g/ha)

CC(Sc1cc(-n2c(=O)cc(C(F)(F)F)n(C)c2=O)c(F)cc1Cl)C(=O)OC1CNC(=O)C1 (centres unmarked) [I.1-254]
80%: Cyperus esculentus (Efficacy in %) [29] | Avena fatua (Efficacy in %) [34]
0%: Zea mays (Efficacy in %) [31] | Oryza sativa (Efficacy in %) [32]
90%: Hordeum murinum (Efficacy in %) [25] | Avena fatua (Efficacy in %) [28] | Stellaria media (Efficacy in %) ([17]; application rate 80 g/ha) | Veronica persica (Efficacy in %) ([23]; application rate 80 g/ha)
100%: Polygonum convolvulus (Efficacy in %) ([3]; application rate 320 g/ha) | Pharbitis purpurea (Efficacy in %) ([4]; application rate 320 g/ha) | Amaranthus retroflexus (Efficacy in %) [5] | Lolium rigidum (Efficacy in %) [26] | Echinochloa crus-galli (Efficacy in %) ([6]; application rate 320 g/ha) | Stellaria media (Efficacy in %) ([7]; application rate 320 g/ha) | Alopecurus myosuroides (Efficacy in %) [27] | Setaria viridis (Efficacy in %) ([8]; application rate 320 g/ha) | Viola tricolor (Efficacy in %) ([9]; application rate 320 g/ha) | Abutilon theophrasti (Efficacy in %) ([10]; application rate 320 g/ha) | Veronica persica (Efficacy in %) ([11]; application rate 320 g/ha) | Polygonum convolvulus (Efficacy in %) ([13]; application rate 80 g/ha) | Pharbitis purpurea (Efficacy in %) ([14]; application rate 80 g/ha) | Amaranthus retroflexus (Efficacy in %) ([15]; application rate 80 g/ha) | Echinochloa crus-galli (Efficacy in %) ([16]; application rate 80 g/ha) | Setaria viridis (Efficacy in %) ([19]; application rate 80 g/ha) | Viola tricolor (Efficacy in %) ([20]; application rate 80 g/ha) | Matricaria inodora (Efficacy in %) ([21]; application rate 80 g/ha) | Abutilon theophrasti (Efficacy in %) ([22]; application rate 80 g/ha) | Matricaria inodora (Efficacy in %) ([24]; application rate 320 g/ha)
10%: Triticum aestivum (Efficacy in %) [12]
20%: Glycine max (Efficacy in %) [30]
100% and 80%: Hordeum murinum (Efficacy in %) [33]

CC(Sc1cc(-n2c(=O)cc(C(F)(F)F)n(C)c2=O)c(F)cc1Cl)C(=O)OCC1CCC(=O)N1 (centres unmarked) [I.1-255]
10%: Zea mays (Efficacy in %) [31] | Triticum aestivum (Efficacy in %) [12]
80%: Avena fatua (Efficacy in %) [34]
0%: Oryza sativa (Efficacy in %) [32]
90%: Alopecurus myosuroides (Efficacy in %) [27] | Avena fatua (Efficacy in %) [28] | Alopecurus myosuroides (Efficacy in %) ([18]; application rate 80 g/ha)
100%: Hordeum murinum (Efficacy in %) [25] | Polygonum convolvulus (Efficacy in %) ([3]; application rate 320 g/ha) | Pharbitis purpurea (Efficacy in %) ([4]; application rate 320 g/ha) | Amaranthus retroflexus (Efficacy in %) [5] | Lolium rigidum (Efficacy in %) [26] | Echinochloa crus-galli (Efficacy in %) ([6]; application rate 320 g/ha) | Stellaria media (Efficacy in %) ([7]; application rate 320 g/ha) | Setaria viridis (Efficacy in %) ([8]; application rate 320 g/ha) | Viola tricolor (Efficacy in %) ([9]; application rate 320 g/ha) | Abutilon theophrasti (Efficacy in %) ([10]; application rate 320 g/ha) | Veronica persica (Efficacy in %) ([11]; application rate 320 g/ha) | Polygonum convolvulus (Efficacy in %) ([13]; application rate 80 g/ha) | Pharbitis purpurea (Efficacy in %) ([14]; application rate 80 g/ha) | Amaranthus retroflexus (Efficacy in %) ([15]; application rate 80 g/ha) | Lolium rigidum (Efficacy in %) [35] | Echinochloa crus-galli (Efficacy in %) ([16]; application rate 80 g/ha) | Stellaria media (Efficacy in %) ([17]; application rate 80 g/ha) | Setaria viridis (Efficacy in %) ([19]; application rate 80 g/ha) | Viola tricolor (Efficacy in %) ([20]; application rate 80 g/ha) | Matricaria inodora (Efficacy in %) ([21]; application rate 80 g/ha) | Abutilon theophrasti (Efficacy in %) ([22]; application rate 80 g/ha) | Veronica persica (Efficacy in %) ([23]; application rate 80 g/ha) | Matricaria inodora (Efficacy in %) ([24]; application rate 320 g/ha)
20%: Glycine max (Efficacy in %) [30]

Source: patent publication US11274083B2, “Substituted thiophenyl uracils, salts thereof and the use thereof as herbicidal agents” (Syngenta Crop Protection AG, priority 2017, dated 2022)
